Test results as given in patent publication US20230287217A1, “Zwitterionic Cell-Permeant and Water-Soluble Rhodamine Dyes for Quantitative Imaging Applications” (OREGON HEALTH & SCIENCE UNIVERSITY, priority 2020, published 2023).

Legend:
[1] = UV-Vis absorption and fluorescence spectroscopy (spectral properties in aqueous media / PBS buffer); type: physicochemical; design: Brightness: unit not given here; conditions: aqueous media
Protocol: UV-Vis and fluorescence spectra were collected on a SpectraMax M5 spectrometer with a Microplate reader (Molecular Devices, Sunnyvale, CA). All absorbance spectra were reference corrected. Extinction coefficient was calculated from Beer’s Law plots of absorbance versus concentration. Relative quantum yields are reported using TMR and SiTMR as reference.

[2] = Absorption and fluorescence stability against solvent polarity changes (dioxane 20-80% in DI water); type: physicochemical; conditions: compared with base fluorophores TMR and SiTMR (SiR)
Text: FIG. 2D graphs normalized absorption (left) and fluorescence spectra (right) of fluorophores with varied percentages of dioxane (20-80%) in DI water resulting the polarity of the screening solvent systems changing in a gradient manner.
A. general rhodamine fluorophore structures including the classic TMR, SiTMR, and the sulfonated versions. […] This structural change results because the carboxylate anion attacks the central carbon forming a spirolactone, which is both colorless and non-fluorescent. […] C. […] This change in both absorbance and fluorescence intensity was alleviated using our sulfonated versions.

CN(C)c1ccc2c(c1)[Si](C)(C)C1=CC(=[N+](C)C)C=CC1=C2c1ccccc1C(=O)O [SiR]
Brightness [1]: 7
Stokes Shift (nm) [1]: 20 nm
FWHMabs (nm) ([1]; absorption band width): 39 nm
λabs (nm) ([1]; absorption maximum): 642 nm
FWHem (nm) ([1]; emission band width): 41 nm
λem (nm) ([1]; emission maximum): 662 nm
ε (M^-1 cm-1) ([1]; extinction coefficient from Beer's Law plots): 19,200 M^-1 cm-1
ϕ ([1]; relative quantum yield, TMR and SiTMR as reference): 0.35
stability of absorbance and fluorescence intensity against solvent polarity changes [2]: diminished rapidly
